Experimental data: paper PMC8248439, “Activation, Structure, Biosynthesis and Bioactivity of Glidobactin‐like Proteasome Inhibitors from Photorhabdus laumondii” (Chembiochem, 2021)
Where two headings read alike, the source gives them in different places.

How the values were obtained:
Type in all cases: biochemical
[1] = target: T1, yeast 20S proteasome (yCP) β5 subunit (ChTL) (Saccharomyces cerevisiae, UniProt P23724+P30656); assay: X-ray crystal structure ([…] Å) and ChTL activity inhibition assay of yCP
T1 construct: gene PRE2; yeast 20S proteasome core particle; with β6 subunit of yCP
T1 sequence (P30656 76-287): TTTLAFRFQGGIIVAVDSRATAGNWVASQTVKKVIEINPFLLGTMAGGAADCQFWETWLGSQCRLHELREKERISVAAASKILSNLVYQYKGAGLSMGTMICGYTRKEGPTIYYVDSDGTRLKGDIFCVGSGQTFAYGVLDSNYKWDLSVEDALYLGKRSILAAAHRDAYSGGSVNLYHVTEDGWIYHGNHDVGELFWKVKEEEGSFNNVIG
T1 sequence (P23724 20-241): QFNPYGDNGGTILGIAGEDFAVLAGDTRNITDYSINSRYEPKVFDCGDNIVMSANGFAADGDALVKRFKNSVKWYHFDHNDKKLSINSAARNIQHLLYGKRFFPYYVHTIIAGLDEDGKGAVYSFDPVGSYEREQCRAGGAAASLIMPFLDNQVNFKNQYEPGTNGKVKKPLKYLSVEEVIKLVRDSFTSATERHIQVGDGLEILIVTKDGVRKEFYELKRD

[2] = target: T2, yeast 20S proteasome (yCP) β2 subunit (TL) (Saccharomyces cerevisiae, UniProt P25043); assay: X-ray crystal structure ([…] Å), mM soaking; weaker TL inhibition
T2 construct: gene PUP1; yeast 20S proteasome core particle
T2 sequence (P25043 30-261): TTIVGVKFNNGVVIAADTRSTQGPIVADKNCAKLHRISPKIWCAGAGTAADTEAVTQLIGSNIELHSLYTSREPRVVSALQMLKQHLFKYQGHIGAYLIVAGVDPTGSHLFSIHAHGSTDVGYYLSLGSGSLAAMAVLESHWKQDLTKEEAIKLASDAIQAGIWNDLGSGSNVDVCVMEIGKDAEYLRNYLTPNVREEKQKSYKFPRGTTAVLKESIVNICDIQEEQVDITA

[3] = target: T2, yeast 20S proteasome (yCP) β2 subunit (TL); assay: as above; remark: listed apart in the source
[4] = target: T1, yeast 20S proteasome (yCP) β5 subunit (ChTL); assay: X-ray crystal structure ([…] Å) and ChTL activity inhibition assay of yCP; remark: listed apart in the source

| Structure (SMILES) | IC50 [1] [µM] | IC50 [2] [µM] | IC50 [3] [µM] | IC50 [4] [µM] |
| --- | --- | --- | --- | --- |
| CC1C=CC(=O)NCCC(O)CC(NC(=O)C(NC(=O)C=CC=Cc2ccccc2)C(C)O)C(=O)N1 (stereo not shown) [compound 4] | 0.073 | > 0.2 | – | – |
| CC1C=CC(=O)NCCC(O)CC(NC(=O)C(NC(=O)C=Cc2ccccc2)C(C)O)C(=O)N1 (stereo not shown) [compound 5] | – | – | > 0.2 | 0.107 |
